Results as given in patent publication US11661577B2, “Co-incubating confined microbial communities” (CALIFORNIA INSTITUTE OF TECHNOLOGY, priority 2007, dated 2023).

Assays:
[1] = tested on: MSSA; experiment: Plug-based drug screening in human blood plasma/LB; settings: 1:1 human blood plasma/LB; breakpoint concentration; 7.5 h at 37° C.
[2] = tested on: Methicillin Resistant S. aureus (MRSA); settings: CFX 24 mg/L; stated as known; cited from earlier work
[3] = tested on: Methicillin Sensitive S. aureus (MSSA); settings: CFX 24 mg/L; stated as known; cited from earlier work
[4] = tested on: Methicillin Resistant S. aureus (MRSA); experiment: MIC determination in plugs; settings: Staphylococcus aureus, 6.75 h, read-out: MIC of CFX for MRSA
[5] = tested on: Methicillin Sensitive S. aureus (MSSA); experiment: MIC determination in plugs; settings: Staphylococcus aureus, 6.5 h, read-out: MIC of CFX for MSSA
[6] = tested on: MSSA (Staphylococcus aureus ATCC# 25923); experiment: Antibiotic testing on Mueller Hinton agar plates; settings: 30° C., even after 40 h
Protocol: Plates were made from Mueller Hinton Agar (Fluka, Switzerland). After autoclaving, the agar was cooled and antibiotics were added and 20 mL plates were poured. For CFX and OXA testing, 50 μL of MRSA and MSSA bacterial culture at 4×10^3 CFU/mL was spread onto separate TSA plates. The plates were incubated at 30° C. After 16.5 h and 40 h the plates were examined for colonies. […] For AMP, ERT, LVF, and VCM, 5 μL of culture at 2×10^4 CFU/mL were spread onto plates, and the plates were incubated at 37° C. for 12 h. After 12 h, growth of colonies on the plates was considered resistance to the antibiotic and no colonies on the plates were considered sensitivity to the antibiotic.

[7] = tested on: Methicillin Resistant S. aureus (MRSA, ATCC# 43300); experiment: Plug-based microfluidic antibiotic susceptibility screen (stochastic confinement, alamarBlue viability indicator); type: cell-based, Staphylococcus aureus; settings: breakpoint concentration, 4 nL plugs, 4×10^5 CFU/mL, 7 h at 37° C.
[8] = tested on: S. aureus strain (MRSA); experiment: Macro-scale experiments (negative control check); type: cell-based, Staphylococcus aureus; settings: data not shown

CC1(C)S[C@@H]2[C@H](NC(=O)[C@H](N)c3ccccc3)C(=O)N2[C@H]1C(=O)O [AMP, ampicillin]
Increase in fluorescence intensity of plugs containing MSSA and antibiotic [1]: no increase in fluorescence intensity

CO[C@@]1(NC(=O)Cc2cccs2)C(=O)N2C(C(=O)O)=C(COC(N)=O)CS[C@@H]21 [CFX, cefoxitin]
Inhibition of MRSA at the positive control concentration [2]: inhibited | Inhibition of MSSA at the positive control concentration [3]: inhibited | MIC [4]: < 8000 µg/mL | MIC [5]: < 4000 µg/mL | Appearance of MSSA colonies on antibiotic plates [6]: did not appear

Cc1onc(-c2ccccc2)c1C(=O)N[C@@H]1C(=O)N2[C@@H]1SC(C)(C)[C@@H]2C(=O)O [OXA, oxacillin]
Appearance of MSSA colonies on antibiotic plates [6]: did not appear

CN[C@H](CC(C)C)C(=O)N[C@H]1C(=O)N[C@@H](CC(N)=O)C(=O)N[C@H]2C(=O)N[C@H]3C(=O)N[C@H](C(=O)N[C@H](C(=O)O)c4cc(O)cc(O)c4-c4cc3ccc4O)[C@H](O)c3ccc(c(Cl)c3)Oc3cc2cc(c3O[C@@H]2O[C@H](CO)[C@@H](O)[C@H](O)[C@H]2O[C@H]2C[C@](C)(N)[C@H](O)[C@H](C)O2)Oc2ccc(cc2Cl)[C@H]1O [VCM, vancomycin]
Susceptibility of MRSA to antibiotic (increase in fluorescence intensity of plugs versus 3 times the VCM baseline) [7]: sensitive | Susceptibility of MRSA to antibiotic (increase in fluorescence intensity of plugs versus 3 times the VCM baseline) ([7]; listed as Vancomycin): not resistant | Inhibition of the S. aureus strain in macro-scale experiments [8]: inhibited
